Assay results as given in patent US10364247B2, “Preparation and use of novel protein kinase inhibitors” (Ruijin Hospital Affiliated to Shanghai Jiao Tong University …, priority 2015, dated 2019).

Tested on: NCI-H1975 and HCC827 cell lines
Experiment: Lung adenocarcinoma cell proliferation
Type: cell-based
Settings: FIG. 4
Protocol: The ability of IA-9 to treat lung adenocarcinoma was tested using the NCI-H1975 and HCC827 cell lines. Both cell lines harbor at least EGFR and Ras mutations and are multi-drug resistant. Cell proliferation was tested using methods described herein.

## Cc1ccc(Nc2ncc3c(n2)N(C)CN(c2cc(NC(=O)c4cccc(C(F)(F)F)c4)ccc2C)C3)cn1 [IA-9, N-(4-methyl-3-(1-methyl-7-((6-methylpyridin-3-yl)amino)-1,4-dihydropyrimido[4,5-d]pyrimidin-3(2H)-yl)phenyl)-3-(trifluoromethyl)benzamide]
  reduction of proliferation of lung adenocarcinoma cells: reduce the proliferation of lung adenocarcinoma cells
